# Assays:
# [1] = Dissociation constant, pKa of the compound; type: physicochemical
# [2] = Unbound fraction in plasma (unknown origin) under normal atmospheric condition at pH 7.22 after 6 hrs by equilibrium dialysis method; type: ADME, cell-free
# [3] = Unbound fraction in plasma (unknown origin) at pH 7.4 after 6 hrs by equilibrium dialysis method in presence of 5% CO2; type: ADME, cell-free
# [4] = Unbound fraction in plasma (unknown origin) at pH 7.63 after 6 hrs by equilibrium dialysis method in presence of 5% CO2; type: ADME, cell-free
# [5] = Unbound fraction in plasma (unknown origin) under normal atmospheric condition at pH 7.72 after 6 hrs by equilibrium dialysis method; type: ADME, cell-free
# [6] = Drug recovery in plasma (unknown origin); type: ADME, cell-free
Compound,pKa [1],fraction unbound at 6 h [2],fraction unbound at 6 h [3],fraction unbound at 6 h [4],fraction unbound at 6 h [5],Compound recovery [6] [%]
CCN(CC)C(=O)C1(c2ccccc2)CC1CN (stereo not given),9.7,0.809,0.837,0.777,0.828,> 70
COc1ccc(CCN(C)CCCC(C#N)(c2ccc(OC)c(OC)c2)C(C)C)cc1OC (stereo not given),–,–,–,–,–,> 70
N[C@@H]1C[C@H]1c1ccccc1.N[C@H]1C[C@@H]1c1ccccc1 (racemic) [TRANYLCYPROMINE],8.2,0.63,0.612,0.53,0.49,> 70
O=C1CC2(CCCC2)CC(=O)N1CCCCN1CCN(c2ncccn2)CC1 [BUSPIRONE],7.3,–,–,–,–,> 70
NC(=O)N1c2ccccc2C=Cc2ccccc21 [CARBAMAZEPINE],–,0.303,0.291,0.288,0.299,> 70
CCn1nc(C(=O)O)c(=O)c2cc3c(cc21)OCO3 [CINOXACIN],4.7,0.251,0.214,0.23,0.266,> 70
CN1CCN(C2=Nc3cc(Cl)ccc3Nc3ccccc32)CC1 [CLOZAPINE],–,0.101,0.081,0.058,0.042,> 70
CN1C(=O)CN=C(c2ccccc2)c2cc(Cl)ccc21 [DIAZEPAM],–,–,–,–,–,> 70
O=C(O)Cc1ccccc1Nc1c(Cl)cccc1Cl [DICLOFENAC],–,–,–,–,–,> 70
COc1ccc([C@@H]2Sc3ccccc3N(CCN(C)C)C(=O)[C@@H]2OC(C)=O)cc1 [DILTIAZEM],8,0.417,0.349,0.35,0.298,> 70
CNCCC(Oc1ccc(C(F)(F)F)cc1)c1ccccc1 (stereo not given) [FLUOXETINE],–,0.079,0.056,0.063,0.04,> 70
O=C(CCCN1CCC(O)(c2ccc(Cl)cc2)CC1)c1ccc(F)cc1 [HALOPERIDOL],–,0.223,0.161,0.164,0.124,> 70
CN(C)CCCN1c2ccccc2CCc2ccccc21 [IMIPRAMINE],–,0.22,0.181,0.172,0.105,> 70
Cc1ncc2n1-c1ccc(Cl)cc1C(c1ccccc1F)=NC2 [MIDAZOLAM],9,0.034,0.036,0.041,0.019,63
CN1CCN2c3ncccc3Cc3ccccc3C2C1 (stereo not given) [MIRTAZAPINE],–,0.32,0.286,0.266,0.16,> 70
COC(=O)C1=C(C)NC(C)=C(C(=O)OCCN(C)Cc2ccccc2)C1c1cccc([N+](=O)[O-])c1 (stereo not given) [NICARDIPINE],7.2,0.008,0.005,0.008,0.003,> 70
Fc1ccc([C@@H]2CCNC[C@H]2COc2ccc3c(c2)OCO3)cc1 [PAROXETINE],9.5,0.136,0.099,0.089,0.074,> 70
CC(C)NCC(O)COc1cccc2ccccc12 (stereo not given) [PROPRANOLOL],–,0.315,0.231,0.213,0.216,> 70
C=C[C@H]1C[N@@]2CC[C@H]1C[C@@H]2[C@@H](O)c1ccnc2ccc(OC)cc12 [QUINIDINE],–,–,–,–,–,> 70
Cc1nc2n(c(=O)c1CCN1CCC(c3noc4cc(F)ccc34)CC1)CCCC2 [RISPERIDONE],–,0.276,0.186,0.222,0.163,> 70
CC(CN(C)C)CN1c2ccccc2CCc2ccccc21 (stereo not given) [TRIMIPRAMINE],8.4,0.106,0.054,0.052,0.037,> 70
CC(=O)CC(c1ccccc1)c1c(O)c2ccccc2oc1=O (stereo not given) [WARFARIN],–,–,–,–,–,> 70

# — ChEMBL document CHEMBL3526113, “Control and measurement of plasma pH in equilibrium dialysis: influence on drug plasma protein binding” (Drug Metab Dispos, 2011)
